From the supplement of paper PMC10307832

Tests used:
Test in all cases: relative viability (nuclei count vs DMSO), 5 days (fraction); higher = more cells survive
[1] = compound: CCn1c(-c2nonc2N)nc2c(C#CC(C)(C)O)ncc(OC[C@H]3CCCNC3)c21 + CS(=O)(=O)N1CCN(Cc2cc3nc(-c4cccc5[nH]ncc45)nc(N4CCOCC4)c3s2)CC1 [Pictilisib] (partner 1 µM)
How it was run: (§1)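 Each reported value is a median over duplicate plates. It expresses relative viability: treated-well nuclei count divided by vehicle-well nuclei count. Lung cancer cell lines in 1536-well plates were dosed by pin tool a day after seeding, alone with one drug or with a fixed anchor-drug dose plus five library-drug doses (not always all listed) in √10 steps, and nuclei were counted after 5 days.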

[2] = compound: CCOC1=CC=CC=C1N=NC2=C(NN(C2=O)C3=NC(=CS3)C4=CC=CC=C4)C [BAM7] + O=C(c1cc(Cc2n[nH]c(=O)c3ccccc23)ccc1F)N1CCN(C(=O)C2CC2)CC1 [Olaparib] (partner 8 µM)
How it was run: as §1

[3] = compound: CCOC1=CC=CC=C1N=NC2=C(NN(C2=O)C3=NC(=CS3)C4=CC=CC=C4)C [BAM7] + CCNC(=O)c1noc(-c2cc(C(C)C)c(O)cc2O)c1-c1ccc(CN2CCOCC2)cc1 [Luminespib] (partner 0.01 µM)
How it was run: as §1

[4] = compound: CCn1c(-c2nonc2N)nc2c(C#CC(C)(C)O)ncc(OC[C@H]3CCCNC3)c21 + NC(=O)Nc1cc(-c2cccc(F)c2)sc1C(=O)N[C@H]1CCCNC1 [AZD7762] (partner 0.2 µM)
How it was run: as §1

| Cell Line | relative viability ([1]; first compound 0.01 µM) | relative viability ([1]; first compound 0.03162 µM) | relative viability ([1]; first compound 0.1 µM) | relative viability ([1]; first compound 0.3162 µM) | relative viability ([1]; first compound 1 µM) | relative viability ([2]; first compound 0.5 µM) | relative viability ([2]; first compound 5 µM) | relative viability ([2]; first compound 15.81 µM) | relative viability ([2]; first compound 50 µM) | relative viability ([3]; first compound 0.5 µM) | relative viability ([3]; first compound 5 µM) | relative viability ([3]; first compound 15.81 µM) | relative viability ([3]; first compound 50 µM) | relative viability ([4]; first compound 0.01 µM) | relative viability ([4]; first compound 0.03162 µM) | relative viability ([4]; first compound 0.1 µM) | relative viability ([4]; first compound 0.3162 µM) | relative viability ([4]; first compound 1 µM) |
| --- | --- | --- | --- | --- | --- | --- | --- | --- | --- | --- | --- | --- | --- | --- | --- | --- | --- | --- |
| A-427 | 0.754 | 0.649 | 0.747 | 0.732 | 0.554 | 0.707 | 0.736 | 0.756 | 0.762 | 0.949 | 0.715 | 0.886 | 1.03 | 0.701 | 0.767 | 0.747 | 0.696 | 0.777 |
| NCI-H2347 | 0.456 | 0.675 | 0.0164 | 0.858 | 0.472 | 0.588 | 0.642 | 0.625 | 0.601 | 0.592 | 0.416 | – | 0.516 | 0.612 | 0.738 | 0.636 | 0.63 | 0.562 |
| NCI-H1355 | 0.534 | 0.361 | 0.384 | 0.392 | 0.472 | 0.753 | 0.725 | 0.679 | 0.718 | 0.697 | 0.754 | 0.637 | 0.707 | 0.768 | 0.762 | 0.827 | 0.625 | 0.743 |
| NCI-H358 | 0.332 | 0.364 | 0.364 | 0.318 | 0.32 | – | 0.535 | 0.547 | 0.608 | 0.382 | 0.283 | 0.376 | 0.49 | 0.478 | 0.386 | 0.684 | 0.518 | 0.512 |
| PC-3 [JPC-3] | 0.754 | 0.744 | 0.762 | 0.695 | 0.643 | 1.12 | 1.1 | 1.06 | 0.995 | 0.683 | 0.771 | 0.612 | 0.636 | 0.724 | – | 0.796 | 0.692 | 0.859 |
| NCI-H2228 | 0.295 | 0.386 | 0.347 | 0.216 | 0.294 | 0.802 | 0.932 | 0.547 | 0.585 | 0.136 | 0.116 | 0.145 | 0.153 | – | – | – | – | – |
| HOP-62 | 0.688 | 0.75 | 0.703 | 0.843 | 0.794 | 0.517 | 0.33 | 0.449 | 0.518 | 0.89 | 0.987 | 0.911 | 0.844 | 0.761 | 0.677 | 0.732 | 0.577 | 0.516 |
| HARA | 0.474 | 0.359 | 0.376 | 0.458 | 0.419 | 0.96 | 0.838 | 0.827 | 0.809 | 0.678 | 0.868 | 0.682 | 0.66 | 0.269 | 0.629 | 0.485 | 0.156 | 0.299 |
| NCI-H838 | 0.496 | 0.44 | 0.536 | 0.499 | 0.553 | 0.876 | 0.776 | 0.797 | 0.758 | 0.359 | 0.292 | 0.346 | 0.328 | 0.957 | 1.02 | 0.988 | 0.855 | 0.9 |
